Experimental data reported in US20240010655A1, “DIHYDROIMIDAZO PYRIMIDO PYRIMIDINONE COMPOUND” (priority 2019, published 2024).

What was measured:
[1] = test system: advanced solid tumors; details: cited from earlier work
[2] = test system: LoVo cell; test: Inhibition of proliferation of LoVo cell, CCK-8 method; format: cell-based; details: Homo sapiens, 72 h, CCK-8, 3 days, read-out: IC50, inhibitory effect on the proliferation of LoVo cell
Method: Determination of the Inhibitory Effect of Compounds on the Proliferation of LoVo Cell Using CCK-8 Method
(§1) The cells were digested by trypsinase and centrifuged at 800 rpm for 5 minutes, the supernatant was discarded, and the residual was resuspended with fresh medium and counted. The cells were seeded into 96-well cell culture plate with a density of 6000 cells per well and incubated overnight in a 5% C02 incubator at 37° C. The stock solutions of test compounds were serially diluted to 8 concentrations by DMSO at the ratios of 1:3 and 1:10, respectively. The final concentration of compound was: 10 μM, 3.3 μM, 1 μM, 0.33 μM, 0.1 μM, 0.033 μM, 0.01 μM and 0 μM. 5 μL diluent of each concentration was added to 120 μL of medium (25 times diluted) and mixed by shaking. The overnight cell plates were taken and the culture medium was removed, 195 μL of fresh medium was added to each well, and 5 μL of diluted medium containing the corresponding concentration of the test compound was added respectively (the final concentration of DMSO is 1‰), and the culture plate was then placed in a 5% CO2 incubator at 37° C. for 3 days. After removing the original solution, 90 μL of fresh serum-free 1640 medium was added, then 10 μL of CCK-8 reagent was added to each well and continued incubation for 2 hours. The 96-well plates were placed in a multi-function reader to read the absorbance at the wavelength of 450/650 nm. Cell viability (%)=(ODcompound−ODbackground)/(ODDMSO−ODbackground)×100. GraphPad Prism 5.0 was used to analyze the data. The inhibitory activity of compounds on cell proliferation was plotted based on cell viability and the logarithm of compound concentration. The IC50 value was fitted by a sigmoidal dose response curve equation Y=100/(1+10^(Log C−Log IC50)), wherein C was the concentration of compound.
Table 2 summarizes the inhibitory effect data (IC50) of compounds on the proliferation of LoVo cell

[3] = biological target: Wee1 (h) (Homo sapiens, UniProt P30291); test: Wee1(h) kinase activity experiment ([γ-33P]-ATP, filtermat, scintillation counting); format: biochemical; details: 10 μM ATP, 40 minutes at room temperature; read-out: IC50, inhibitory effect on Wee1 kinase activity
Sequence of Wee1 (h) (P30291 whole entry): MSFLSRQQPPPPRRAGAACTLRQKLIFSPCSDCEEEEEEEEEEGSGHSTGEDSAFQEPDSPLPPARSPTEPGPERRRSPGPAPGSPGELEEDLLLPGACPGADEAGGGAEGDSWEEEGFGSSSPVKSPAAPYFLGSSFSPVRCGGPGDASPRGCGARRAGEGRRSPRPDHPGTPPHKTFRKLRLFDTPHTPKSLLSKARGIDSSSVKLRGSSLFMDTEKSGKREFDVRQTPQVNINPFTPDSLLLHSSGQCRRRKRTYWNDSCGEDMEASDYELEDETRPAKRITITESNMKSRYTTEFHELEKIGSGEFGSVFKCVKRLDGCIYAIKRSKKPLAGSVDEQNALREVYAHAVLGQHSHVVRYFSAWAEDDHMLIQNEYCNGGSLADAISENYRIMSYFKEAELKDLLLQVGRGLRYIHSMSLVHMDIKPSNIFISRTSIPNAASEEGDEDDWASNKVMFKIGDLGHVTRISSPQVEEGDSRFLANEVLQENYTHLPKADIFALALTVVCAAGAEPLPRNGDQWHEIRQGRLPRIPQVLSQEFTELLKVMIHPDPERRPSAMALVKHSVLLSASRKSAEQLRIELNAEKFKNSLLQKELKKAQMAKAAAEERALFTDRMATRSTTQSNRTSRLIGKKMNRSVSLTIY
Method: Determination of the Inhibitory Effect of Compounds on Wee1 Kinase Using Wee1(h) Kinase Activity Experiment
Wee1 (h) is incubated with 20 mM Tris/HCl pH 8.5, 0.2 mM EDTA, 500 μM […], 10 mM MgAcetate and 10 μM [γ-^33P]-ATP. Then 50 times the concentration of the testing compound in 100% DMSO was added until the final concentration was 10 μM, then mixed, and diluted to 10 concentrations in successive series according to the ratio of 1:3 and 1:10 respectively (the last concentration was DMSO negative control): 10 μM, 3 μM, 1 μM, 0.3 μM, 0.1 μM, 0.03 μM, 0.01 μM, 0.003 μM, 0.001 μM, 0 μM. The reaction is initiated by the addition of the Mg/ATP mix. After incubation for 40 minutes at room temperature, the reaction is stopped by the addition of phosphoric acid to a concentration of 0.5%. 10 μL of the reaction liquor is then spotted onto a P30 filtermat and washed four times in 0.425% phosphoric acid and once in methanol prior to drying and scintillation counting. Each compound sample is duplicated in duplicate. The negative control was the components except of Wee1 enzyme, and the positive control was the components of adding 30% phosphoric acid to terminate the reaction. Table 1 summarizes the inhibitory effects of compounds on Wee1 kinase activity (IC50).

[4] = test system: NCI-H1299 cell; test: Inhibition of proliferation of NCI-H1299 cell, CCK-8 method; format: cell-based; details: Homo sapiens, NCI-H1299, 72 h; CCK-8, 3 days; read-out: IC50, inhibitory effect on the proliferation of NCI-H1299 cell
Method: Determination of the Inhibitory Effect of Compounds on the Proliferation of NCI-H1299 Cell Using CCK-8 Method
as §1, with “1000” for “6000”, “CO2” for “C02”
Table 3 summarizes the inhibitory effect data (IC50) of compounds on the proliferation of NCI-H1299 cell.

[5] = 176 evaluable patients, AZD1775 alone or in combination with chemotherapy

| SMILES | patients with partial response [1, 5] [%] | patients with stable disease as the best response [1, 5] [%] | response rate in patients with TP53 mutation ([1]; TP53 mutation (n=19)) [%] | response rate in TP53 wild-type patients ([1]; TP53 wild-type (n=33)) [%] | IC50 [2] [nM] | IC50 [3] [nM] | IC50 [4] [nM] |
| --- | --- | --- | --- | --- | --- | --- | --- |
| C=CCn1c(=O)c2cnc(Nc3ccc(N4CCN(C)CC4)cc3)nc2n1-c1cccc(C(C)(C)O)n1 [AZD1775] | 10 | 53 | 21 | 12 |  |  |  |
| Cc1cc(Nc2ncc3c(n2)N2CCN=C2N(c2c(Cl)cccc2Cl)C3=O)ccc1N1C[C@@H](C)N[C@@H](C)C1 [Example 1, 6-(2,6-dichlorophenyl)-2-((4-((3S,5R)-3,5-dimethylpiperazin-1-yl)-3-methylphenyl)amino)-8,9-dihydroimidazo[1,2-a]pyrimido[5,4-e]pyrimidin-5(6H)-one] |  |  |  |  | 126 | 37 | 71 |
| [2H]C([2H])([2H])N1[C@H](C)CN(c2ccc(Nc3ncc4c(n3)N3CCN=C3N(c3c(Cl)cccc3Cl)C4=O)cc2C)C[C@@H]1C [Example 2, 6-(2,6-dichlorophenyl)-2-((4-((3S,5R)-3,5-dimethyl-4-(methyl-d3)piperazin-1-yl)-3-methylphenyl)amino)-8,9-dihydroimidazo[1,2-a]pyrimido[5,4-e]pyrimidin-5(6H)-one] |  |  |  |  | 158 | 21 | 123 |
| C[C@@H]1CN(c2ccc(Nc3ncc4c(n3)N3CCN=C3N(c3c(Cl)cccc3Cl)C4=O)cc2Br)C[C@H](C)N1C [Example 3, 2-((3-bromo-4-((3S,5R)-3,4,5-trimethylpiperazin-1-yl)phenyl)amino)-6-(2,6-dichlorophenyl)-8,9-dihydroimidazo[1,2-a]pyrimido[5,4-e]pyrimidin-5(6H)-one] |  |  |  |  | 219 |  | 382 |
| Cc1cc(Nc2ncc3c(n2)N2CCN=C2N(c2c(Cl)cccc2Cl)C3=O)cc(F)c1N1C[C@@H](C)N(C)[C@@H](C)C1 [Example 5, 6-(2,6-dichlorophenyl)-2-((3-fluoro-5-methyl-4-((3S,5R)-3,4,5-trimethylpiperazin-1-yl)phenyl)amino)-8,9-dihydroimidazo[1,2-a]pyrimido[5,4-e]pyrimidin-5(6H)-one] |  |  |  |  | 124 |  | 182 |
| Cc1cc(Nc2ncc3c(n2)N2CCN=C2N(c2c(Cl)cccc2Cl)C3=O)ccc1N1C[C@H](C)N(C)[C@@H](C)C1 [Example 8, 6-(2,6-dichlorophenyl)-2-((3-methyl-4-((3S,5S)-3,4,5-trimethylpiperazin-1-yl)phenyl)amino)-8,9-dihydroimidazo[1,2-a]pyrimido[5,4-e]pyrimidin-5(6H)-one] |  |  |  |  | 163 | 30 | 214 |
| Cc1cc(Nc2ncc3c(n2)N2CCN=C2N(c2c(Cl)cccc2Cl)C3=O)ccc1C1CCNCC1 [Example 9, 6-(2,6-dichlorophenyl)-2-((3-methyl-4-(piperidin-4-yl)phenyl)amino)-8,9-dihydroimidazo[1,2-a]pyrimido[5,4-e]pyrimidin-5(6H)-one] |  |  |  |  | 533 | 23 | 940 |
| Cc1cc(Nc2ncc3c(n2)N2CCN=C2N(c2c(Cl)cccc2Cl)C3=O)ccc1C1CCN(C)CC1 [Example 12, 6-(2,6-dichlorophenyl)-2-((3-methyl-4-(1-methylpiperidin-4-yl)phenyl)amino)-8,9-dihydroimidazo[1,2-a]pyrimido[5,4-e]pyrimidin-5(6H)-one] |  |  |  |  | 78 | 23 | 79 |
| Cc1cc(Nc2ncc3c(n2)N2CCN=C2N(c2c(Cl)cccc2Cl)C3=O)cc(F)c1C1CCN(C)CC1 [Example 13, 6-(2,6-dichlorophenyl)-2-((3-fluoro-5-methyl-4-(1-methylpiperidin-4-yl)phenyl)amino)-8,9-dihydroimidazo[1,2-a]pyrimido[5,4-e]pyrimidin-5(6H)-one] |  |  |  |  | 73 | 26 | 85 |
